Results reported in US20240060999A1, “BLOOD COAGULATION INSPECTION METHOD” (FUJIMORI KOGYO CO., LTD, priority 2020, published 2024).

System: whole blood
Experiment: ROTEM whole blood coagulation with rabbit brain-derived tissue thromboplastin (TP) + Ca 12 mM (CTI 20 μg/mL, PKSI-527 40 μM where stated)
Type: cell-based
Settings: for prolongation of blood clotting time with rTM by addition of heparan sulfate: reagents (1)-(4), all conditions, heparan sulfate 1 μg/mL
[1] = Ex15, TP 0.033 μg/mL+Ca+CTI+PKSI-527, heparan sulfate 0.3 μg/mL, no rTM
[2] = Ex15, TP 0.033 μg/mL+Ca+CTI+PKSI-527, heparan sulfate 0.3 μg/mL, rTM 5 nM
[3] = Ex15, TP 0.033 μg/mL+Ca+CTI+PKSI-527, heparan sulfate 0.4 μg/mL, no rTM
[4] = Ex15, TP 0.033 μg/mL+Ca+CTI+PKSI-527, heparan sulfate 0.4 μg/mL, rTM 5 nM
[5] = Ex15, TP 0.033 μg/mL+Ca+CTI+PKSI-527, heparan sulfate 0.5 μg/mL, no rTM
[6] = Ex15, TP 0.033 μg/mL+Ca+CTI+PKSI-527, heparan sulfate 0.5 μg/mL, rTM 5 nM
[7] = Ex17, TP 0.011 μg/mL+Ca+CTI+PKSI-527, heparan sulfate 0.2 μg/mL, no rTM
[8] = Ex17, TP 0.011 μg/mL+Ca+CTI+PKSI-527, heparan sulfate 0.2 μg/mL, rTM 10 nM
[9] = Ex17, TP 0.011 μg/mL+Ca+CTI+PKSI-527, heparan sulfate 0.3 μg/mL, no rTM
[10] = Ex17, TP 0.011 μg/mL+Ca+CTI+PKSI-527, heparan sulfate 0.3 μg/mL, rTM 10 nM
[11] = Ex17, TP 0.011 μg/mL+Ca+CTI+PKSI-527, heparan sulfate 0.5 μg/mL, no rTM
[12] = Ex17, TP 0.011 μg/mL+Ca+CTI+PKSI-527, heparan sulfate 0.5 μg/mL, rTM 10 nM
[13] = Ex18, TP 0.0166 μg/mL+Ca+CTI+PKSI-527, heparan sulfate 0.3 μg/mL, no rTM
[14] = Ex18, TP 0.0166 μg/mL+Ca+CTI+PKSI-527, heparan sulfate 0.3 μg/mL, rTM 10 nM
[15] = Ex18, TP 0.0166 μg/mL+Ca+CTI+PKSI-527, heparan sulfate 0.5 μg/mL, no rTM
[16] = Ex18, TP 0.0166 μg/mL+Ca+CTI+PKSI-527, heparan sulfate 0.5 μg/mL, rTM 10 nM
[17] = Ex18, TP 0.0166 μg/mL+Ca+CTI+PKSI-527, heparan sulfate 1.0 μg/mL, no rTM
[18] = Ex18, TP 0.0166 μg/mL+Ca+CTI+PKSI-527, heparan sulfate 1.0 μg/mL, rTM 10 nM

Substance: Heparan sulfate
- CT (clotting time) (Ex15, TP 0.033 μg/mL+Ca+CTI+PKSI-527, heparan sulfate 0.2 μg/mL, rTM 5 nM): 749 s
- CFT (clot formation time) [1]: 171 s
- CT (clotting time) [1]: 688 s
- CFT (clot formation time) [2]: 251 s
- CT (clotting time) [2]: 825 s
- CFT (clot formation time) [3]: 206 s
- CT (clotting time) [3]: 762 s
- CFT (clot formation time) [4]: 334 s
- CT (clotting time) [4]: 955 s
- CFT (clot formation time) [5]: 248 s
- CT (clotting time) [5]: 837 s
- CFT (clot formation time) [6]: 407 s
- CT (clotting time) [6]: 995 s
- blood clotting time (Ex17, TP 0.011 μg/mL+Ca+CTI+PKSI-527, heparan sulfate 0.2 μg/mL or more, rTM 10 nM): ≥ 1 h
- CFT (clot formation time) [7]: 578 s
- CT (clotting time) [7]: 1408 s
- CFT (clot formation time) [8]: No CFT
- CT (clotting time) [8]: No CT
- CFT (clot formation time) [9]: 430 s
- CT (clotting time) [9]: 1630 s
- CFT (clot formation time) [10]: No CFT
- CT (clotting time) [10]: No CT
- CFT (clot formation time) [11]: 386 s
- CT (clotting time) [11]: 1178 s
- CFT (clot formation time) [12]: No CFT
- CT (clotting time) [12]: No CT
- CFT (clot formation time) [13]: 256 s
- CT (clotting time) [13]: 1035 s
- CFT (clot formation time) [14]: 292.0 s
- CT (clotting time) [14]: 904 s
- CFT (clot formation time) [15]: 407 s
- CT (clotting time) [15]: 1162 s
- CFT (clot formation time) [16]: 742.0 s
- CT (clotting time) [16]: 1064 s
- CFT (clot formation time) [17]: No CT
- CT (clotting time) [17]: 1999 s
- CFT (clot formation time) [18]: No CFT
- CT (clotting time) [18]: No CT
- blood clotting time [18]: ≥ 1 h
- CT (clotting time) (Ex30, reagent (1): TP 0.664 μg/mL+heparan sulfate 1 μg/mL+Ca, no rTM): 220 s
- CT (clotting time) (Ex30, reagent (1): TP 0.664 μg/mL+heparan sulfate 1 μg/mL+Ca, rTM 25 nM): 533 s
- CT (clotting time) (Ex30, reagent (1): TP 0.664 μg/mL+heparan sulfate 1 μg/mL+Ca, rTM 25 nM+APC inhibitory aptamer 1 μM): 260 s
- CT (clotting time) (Ex30, reagent (2): TP 0.664 μg/mL+heparan sulfate 1 μg/mL+Ca+CTI, no rTM): 214 s
- CT (clotting time) (Ex30, reagent (2): TP 0.664 μg/mL+heparan sulfate 1 μg/mL+Ca+CTI, rTM 25 nM): 448 s
- CT (clotting time) (Ex30, reagent (2): TP 0.664 μg/mL+heparan sulfate 1 μg/mL+Ca+CTI, rTM 25 nM+APC inhibitory aptamer 1 μM): 287 s
- CT (clotting time) (Ex30, reagent (3): TP 0.664 μg/mL+heparan sulfate 1 μg/mL+Ca+PKSI-527, no rTM): 220 s
- CT (clotting time) (Ex30, reagent (3): TP 0.664 μg/mL+heparan sulfate 1 μg/mL+Ca+PKSI-527, rTM 25 nM): 444 s
- CT (clotting time) (Ex30, reagent (3): TP 0.664 μg/mL+heparan sulfate 1 μg/mL+Ca+PKSI-527, rTM 25 nM+APC inhibitory aptamer 1 μM): 291 s
- CT (clotting time) (Ex30, reagent (4): TP 0.664 μg/mL+heparan sulfate 1 μg/mL+Ca+CTI+PKSI-527, no rTM): 226 s
- CT (clotting time) (Ex30, reagent (4): TP 0.664 μg/mL+heparan sulfate 1 μg/mL+Ca+CTI+PKSI-527, rTM 25 nM): 440 s
- CT (clotting time) (Ex30, reagent (4): TP 0.664 μg/mL+heparan sulfate 1 μg/mL+Ca+CTI+PKSI-527, rTM 25 nM+APC inhibitory aptamer 1 μM): 319 s
- prolongation of blood clotting time with rTM by addition of heparan sulfate (Ex30, rTM 25 nM): markedly prolonged
- CT (clotting time) (Ex31, reagent (1): TP 0.664 μg/mL+heparan sulfate 1 μg/mL+Ca, no rTM): 220 s
- CT (clotting time) (Ex31, reagent (1): TP 0.664 μg/mL+heparan sulfate 1 μg/mL+Ca, rTM 30 nM): 766 s
- CT (clotting time) (Ex31, reagent (1): TP 0.664 μg/mL+heparan sulfate 1 μg/mL+Ca, rTM 30 nM+APC inhibitory aptamer 1 μM): 301 s
- CT (clotting time) (Ex31, reagent (2): TP 0.664 μg/mL+heparan sulfate 1 μg/mL+Ca+CTI, no rTM): 214 s
- CT (clotting time) (Ex31, reagent (2): TP 0.664 μg/mL+heparan sulfate 1 μg/mL+Ca+CTI, rTM 30 nM): 613 s
- CT (clotting time) (Ex31, reagent (2): TP 0.664 μg/mL+heparan sulfate 1 μg/mL+Ca+CTI, rTM 30 nM+APC inhibitory aptamer 1 μM): 286 s
- CT (clotting time) (Ex31, reagent (3): TP 0.664 μg/mL+heparan sulfate 1 μg/mL+Ca+PKSI-527, no rTM): 220 s
- CT (clotting time) (Ex31, reagent (3): TP 0.664 μg/mL+heparan sulfate 1 μg/mL+Ca+PKSI-527, rTM 30 nM): 517 s
- CT (clotting time) (Ex31, reagent (3): TP 0.664 μg/mL+heparan sulfate 1 μg/mL+Ca+PKSI-527, rTM 30 nM+APC inhibitory aptamer 1 μM): 297 s
- CT (clotting time) (Ex31, reagent (4): TP 0.664 μg/mL+heparan sulfate 1 μg/mL+Ca+CTI+PKSI-527, no rTM): 226 s
- CT (clotting time) (Ex31, reagent (4): TP 0.664 μg/mL+heparan sulfate 1 μg/mL+Ca+CTI+PKSI-527, rTM 30 nM): 557 s
- CT (clotting time) (Ex31, reagent (4): TP 0.664 μg/mL+heparan sulfate 1 μg/mL+Ca+CTI+PKSI-527, rTM 30 nM+APC inhibitory aptamer 1 μM): 307 s
- prolongation of blood clotting time with rTM by addition of heparan sulfate (Ex31, rTM 30 nM): markedly prolonged
